# According to US20080051598A1, “Process for Production of Polysubstituted Cyclobutanes and Polysubstituted Cyclobutenes” (priority 2004, published 2008):
# Experiments:
# [1] = tested on: cultured Plasmodium falciparum; assay: growth inhibition of malaria parasites; type: cell-based; conditions: read-out: concentration at which growth of cultured Plasmodium falciparum was 50% inhibited
# Experimental: An evaluation was conducted of growth inhibition of malaria parasites by a compound 9 derived by chemical conversion of cyclobutane compound 8 synthesized according to the present invention. As a result, the growth of cultured Plasmodium falciparum was 50% inhibited by a low concentration of 1 μM of compound 9. [drawing 60]
# [2] = tested on: colon cancer cells (HCT116); assay: anti-tumor effects, growth of colon cancer cells; type: cell-based; conditions: concentration 25 μg/mL
# Experimental: An evaluation was conducted of the anti-tumor effects of a compound 11 derived by chemical conversion of cyclobutane compound 10 synthesized according to the present invention. As a result, the growth of colon cancer cells (HCT116) was inhibited by a low concentration of 25 μg/mL of compound 11. [drawing 61]
Structure (SMILES),IC50 [1] [nM],growth of colon cancer cells (HCT116) [2]
OC[C@H]1C2CCC[C@@]23CCC[C@@]13O (some centres unmarked) [compound 9],1000,–
CC(=O)OC12CCC1(C)C1CC(C)(C)CC2C=C1C (centres unmarked) [compound 11],–,inhibited
